US7074768B2, “Modified protein kinase A-specific oligonucleotides and methods of their use” (Idera Pharmaceuticals, Inc., priority 1995, dated 2006)

Experiments:
RIα protein = test: Histochemical analysis of GEO tumors: RIα; type: in vivo, human
Excerpt: (§1) Tumor specimens from the different groups of mice were examined by histochemical analysis at different time points to evaluate the expression of a variety of biological parameters. […] No other treatment was able to affect RIα expression.

[1] = tested on: 1A9PTX22 human ovarian cancer cells; test: Soft agar growth of 1A9PTX22 cells; type: cell-based
Method: (§2) Cell lines. The 1A9PTX22 cell line, a paclitaxel (PTX)-resistant clone of the human ovarian carcinoma cell line 1A9, was isolated by exposing 1A9 cells to 5 ng/ml PTX in the presence of 5 μg/ml verapamil, a P glicoprotein antagonist. 1A9PTX22 cells were kindly provided by Dr. Giannakakou, NCI Bethesda, Md., USA. Cells were maintained in RPMI medium supplemented with 10% heat-inactivated FBS, 20 mM HEPES, pH 7.4 penicillin (100 UI/ml), streptomycin (100 μg/ml) and 4 mM glutamine (ICN, Irvine, UK) 15 ng/ml PIX and 5 μg/ml verapamil in a humified atmosphere of 95% air and 5% CO2 at 37° C. 7 days before experiments were performed, PTX and verapamil were removed from culture medium.
(§3) Soft agar growth. Cells (10^4 cells/well) were seeded in 0.5 ml of 0.3% Difco Noble agar (Difco, Detroit, Mich.) supplemented with complete culture medium. This suspension was layered over 0.5 ml of 0.8% agar-medium base layer in 24 multiwell cluster dishes (Becton Dickinson) and treated with various concentrations of HYB 165 or HYB508 every 4g hours for three times. After 12 days the cells were stained with nitroblue tetrazolium (Sigma, St. Louis, Mo.) and colonies larger than 0.05 mm were counted.

TGFα = test: Histochemical analysis of GEO tumors: TGFα; type: in vivo; settings: single agent, after two cycles
Excerpt: Tumor specimens from the different groups of mice were examined by histochemical analysis at different time points to evaluate the expression of a variety of biological parameters.
(§4) TGFα and AR are growth factors which bind to EGFR and control human colon cancer growth through autocrine and paracrine mechanisms (F. Ciardiello and G. Tortora, Clin. Cancer Res. 4:821–828 (1998); D. S. Salomon, Crit. Rev. Oncol. Hematol. 19:183–232 (1995)).

[2] = tested on: GEO colon cancer xenografts; test: GEO colon cancer xenografts in nude mice (tumor growth, survival); type: in vivo; settings: for inhibition of tumor growth: 10 mg/kg/dose
Method: We investigated the antitumor activity of HYB 165 (AS RIα) in nude mice bearing GEO colon cancer xenografts, using either the intraperitoneal (i.p.) or the oral route of administration. When established GEO tumors of approximately […] were detectable, groups of 10 mice were treated i.p. with either HYB 165 or a control modified backbone oligonucleotide with a scrambled sequence, at 5 or 10 mg/kg/dose, daily on days 7 to 11 and 14 to 18. […] The control oligonucleotide produced no inhibition at 10 mg/kg/dose.
Following oral administration, modified backbone oligonucleotides (MBOs) are absorbed in the upper and lower part of the GI tract and distributed to major organs (S. Agrawal and R. Zhang, In: Antisense Research and Application, S. T. Crooke, ed.), Handbook of Experimental Pharmacology, Springer, Berlin, p. 525–543 (1998). Therefore, HYB 165 and the control oligonucleotide were administered to GEO tumor-bearing mice as described above, except that HYB 165 and the control oligonucleotide were administered orally.
On day 7 after tumor cell injection, one group of 10 mice was treated with taxol (20 mg/kg/dose, i.p.), and the treatment was repeated every 2 weeks (on day 21 and day 35) for a total of three cycles. Two other groups of mice were treated with either HYB 165 (AS RIα) or a control MBO with a scrambled sequence (10 mg/kg/dose, p.o.), daily for five days (days 8–12). Treatment was repeated every 2 weeks (days 22–26 and days 36–40) for a total of three cycles. Two more groups of mice were treated with taxol and either HYB 165 or the control MBO, administering the taxol (20 mg/kg/dose, i.p.) on day 7, followed by oral administration of either HYB 165 or the control MBO daily for five days (days 8–12). The sequential treatment was repeated with the same schedule every 2 weeks for a total of three cycles.

Ki67 = test: Histochemical analysis of GEO tumors: Ki67 staining; type: in vivo; settings: combination of taxol and HYB 165
Excerpt: as §1, §4

[3] = tested on: 1A9PTX10 human ovarian cancer cells; test: Soft agar growth of 1A9PTX10 cells; type: cell-based
Method: as §2, with “1A9PTX10” for “1A9PTX22”, “7.4,” for “7.4”, “PTX” for “PIX”
as §3, with “48” for “4g”

p27 = test: Histochemical analysis of GEO tumors: p27; type: in vivo
Excerpt: as §1
Loda et al. (Nature Medicine 3:231–234 (1997)) discloses that the cyclin-dependent kinase (CDK) inhibitor p27 is […] related to cell entry into S phase and proliferation and that reduction of its expression correlates with poor prognosis in colon cancer patients.

Substance: HYB 165: Hybrid 18-mer mixed backbone antisense to PKA RIα, GCGUGCCTCCTCACUGGC (SEQ ID NO:4), 2-O-methyl ribonucleotides at 5′ and 3′ ends (sugars by position and backbone not given here; 2'-O-methyl ribonucleotides at both ends, mixed backbone)
- expression of RIα protein in the tumor (RIα protein; in combination with taxol, after two cycles): further increased
- expression of RIα protein in the tumor (RIα protein; single agent, after two cycles of treatment, FIG. 18): inhited expression of the target RIα protein in the tumor
- inhibition of cell growth ([1]; 0.1 μM): approximately 5%
- inhibition of cell growth ([1]; 0.5 μM): about 50%
- inhibition of cell growth ([1]; 1 μM): about 82%
- inhibition of cell growth ([1]; 2.5 μM): over 95%
- expression of TGFα (TGFα): inhibited the expression of TGF α and AR
- inhibition of tumor size ([2]; 10 mg/kg/dose p.o., at the completion of the three cycles of treatment): over 50%
- tumor growth ([2]; MBO 10 mg/kg/dose p.o. in combination with taxol 20 mg/kg/dose i.p., three cycles): marked and sustained inhibition of tumor growth
- survival ([2]; MBO p.o. in combination with taxol i.p., three cycles): prolonged mouse life span
- tolerability (weight loss, signs of acute or delayed toxicity) ([2]; combined treatment with taxol and HYB 165): well tolerated
- inhibition of tumor growth ([2]; i.p., daily on days 7 to 11 and 14 to 18, FIG. 16A): up to 40%
- inhibition of tumor growth ([2]; oral, two cycles, vs untreated mice, FIG. 16B): about 60%
- tumor growth ([2]; single agent, three cycles (taxol 20 mg/kg/dose i.p.; MBO 10 mg/kg/dose p.o.), FIG. 17A): inhibited tumor growth
- survival time ([2]; single agent, three cycles, FIG. 17B): increased survival time as compared to the control group
- time of very slow tumor growth following the end of treatment ([2]; taxol 20 mg/kg/dose i.p. and HYB 165 10 mg/kg/dose p.o., three cycles): approximately 60 days
- mice still alive after 15 weeks ([2]; taxol and HYB 165 in combination): about 50%
- cell proliferation by Ki67 staining (Ki67): almost completely suppressed cell proliferation
- inhibition of cell growth ([3]; 0.1 μM): approximately 5%
- inhibition of cell growth ([3]; 0.5 μM): about 43%
- inhibition of cell growth ([3]; 1 μM): about 70%
- inhibition of cell growth ([3]; 2.5 μM): over 85%
- p27 expression (p27; single agent): able to increase p27 expression
- increase in intensely positive cell staining for p27 (p27; taxol and antisense RIα in combination): 2.5 fold
